The test system of one data set is recombinant αSyn. Kind of data set: Effect of inhibitor peptides on αSyn aggregation (ThT, TEM, dot blot, Coomassie gel). The class given is biochemical, human. As for the experimental part:
For monitoring the effect of inhibitor peptides on αSyn aggregation, recombinant αSyn was incubated with PD, PL, PB, or scrambled peptides at a 1 : 2 molar ratio (100–150 μM αSyn:200–300 μM inhibitor) in the presence of 50 μM ThT. The incubation was performed at 37 °C with constant agitation at 850 rpm in a Turbo Thermo Shaker (TMS‐200; Allsheng, Hangzhou, China). The formation of amyloid fibrils was monitored by measuring ThT fluorescence over 72 h, as described previously.
To fractionate aggregated samples (recombinant αSyn or NAC peptides), 20% of the aggregation mixture was set aside as the ‘total fraction’. The remaining sample was centrifuged at room temperature at 65 000 g for 1 h. The supernatant was collected as the ‘soluble fraction’ and transferred to a fresh tube. The pellet was resuspended in 80 μL of 1× PBS (pH 7.2) and centrifuged at 65 000 g for 1 h. After removing the supernatant, the pellet was resuspended in 8 μL of 1× PBS (pH 7.2), yielding a 10× concentrated ‘insoluble fraction’.
Samples were dropped on glow‐discharged carbon‐coated copper grids and negatively stained with 2% uranyl acetate. Electron microscopy was performed on a Tecnai G2 F20 microscope (FEI Technologies, Hillsboro, OR, USA) with an Eagle 4K CCD camera (FEI Technologies) or a CM100 TWIN Transmission Electron Microscope (Philips, Amsterdam, Netherlands) equipped with a side‐mounted Veleta Camera (Olympus, Tokyo, Japan) and processed in the iTEM software suite (Olympus). After bringing the images to 2048 × 2048 pixels, the pixel size at the specimen level was 1.14 nm. Approximately 20 micrographs of each specimen were recorded and evaluated.
The samples were mixed with 2× Laemmli buffer [62.5 mM Tris/HCl (pH 6.8), 25% (w/v) glycerol, 2% SDS, and 0.01% Bromophenol Blue, supplemented with 5% (v/v) 2‐mercaptoethanol] and boiled at 95 °C for 5 min. The samples were then subjected to electrophoresis using Mini‐PROTEAN TGX 4–20% Precast gels (Bio‐Rad, Hercules, CA, USA, Cat. # 4561095) in Tris/glycine/SDS running buffer (Bio‐Rad). […]

The subject of data set [1] is HEK293T αSyn (A53T) CFP/YFP biosensor cells. As to the kind of experiment: Cell seeding assay (CFP/YFP inclusions, FRET flow cytometry). The class given is cell-based. As to conditions: αSyn : peptide 1 : 2 for 72 h, 1 μM total or insoluble fraction, TurboFect, n = 3. The text has this:
HEK293T αSyn (A53T) CFP/YFP biosensor cells (HEK293T parental line, RRID:CVCL_0063) were kindly provided by Dr. Marc Diamond from the University of Texas Southwestern Medical Center (Dallas, TX, USA). The cells were not further authenticated but were routinely tested and confirmed to be mycoplasma‐free using PCR‐based assays. The cells were maintained in complete growth media consisting of 88% Dulbecco's modified Eagle's growth medium (Lonza, Walkersville, MD, USA, Cat. # 12‐604F), supplemented with 10% (v/v) fetal bovine serum (Thermo Fisher Scientific Inc., Cat. # A5256701), 10 mM HEPES (Serana Europe GmbH, Brandenburg, Germany; Cat # BSL‐001‐100ML), 1% (v/v) GlutaMAX™ Supplement (Thermo Fisher Scientific Inc., Cat. # 35050061), and 1% (v/v) Penicillin–Streptomycin Solution (Thermo Fisher Scientific Inc., Cat. # 15140130). Cells were maintained at 37 °C in a humidified incubator with 5% CO2/atmospheric air. […]
Cells were imaged using a high‐content imaging system (Cell Voyager 7000S; Yokogawa, Tokyo, Japan) with a 20× objective. CFP/YFP inclusions of αSyn (A53T) were detected using a 488 nm laser line (Ex = 460–490 nm, Em = 500–550 nm), while Hoechst‐33 342‐stained nuclei were detected using the 405 nm laser line (Ex = 360–400 nm, Em = 410–480 nm). […]
(Flow cytometry measures light scatter and fluorescence of single cells or particles in a stream.)

Data set [2] is described as follows: Self-aggregation of inhibitor peptides alone (ThT, SEM). In kind it is physicochemical. As to conditions: Fig. S8. Here is the method: NAC peptides stored at −80 °C were thawed on ice and centrifuged at 12 100 g for 45 s. A reaction mixture (40 μL) was prepared on ice containing 100 μM NAC peptide, either alone or in combination with inhibitor peptides at a 1 : 2 molar ratio, along with 15 μM ThT (Sigma‐Aldrich, Burlington, MA, USA; Cat. # T3516‐5G) in 1× PBS (pH 7.2). This mixture was then dispensed into a clear‐bottom, black 384‐well plate (Revvity, Waltham, MA, USA), and the plate was sealed with a TopSealA‐PLUS (Revvity) to prevent evaporation.
The aggregation kinetics was monitored on an EnSpire Multimode Plate Reader (Revvity) at 37 °C with a constant agitation of 1000 rpm. To prevent condensation in the assay plate, the upper heater temperature in the plate reader was set to 2 °C higher than the lower heater temperature. ThT (Ex: 460–490 nm, Em: 500–550 nm) fluorescence readings were recorded every 5–10 min for 48–72 h. The aggregation lag time was determined by fitting a Boltzmann sigmoidal equation to the fluorescence data in OriginPro 2024 (OriginLab Corporation, Northampton, MA, USA).
NAC peptides aggregated in the absence or presence of inhibitor peptides, as described in the section Aggregation Kinetics, were collected and pooled into Eppendorf tubes. Approximately 2 μL of each sample was drop‐cast onto a silicon wafer and air‐dried at room temperature. […]

Turning to KISVRVRRRRRR [PD], in the data set with recombinant αSyn (αSyn : peptide 1 : 2 molar ratio (100–150 μM : 200–300 μM), 50 μM ThT, 37 °C, 850 rpm, 72 h, n = 3), the “inhibition of αSyn aggregation (ThT kinetics)” value is “highly effective in inhibiting αSyn aggregation”. For the same sequence, in data set [1], the “CFP/YFP inclusions in cells transduced with αSyn fibrils formed with inhibitor” value is recorded as “reduced inclusions”.

Turning to VSRKIVRRRRR [PS], the “final ThT reading normalized to control (amyloid fibrils formed)” value in the data set on recombinant αSyn (αSyn : peptide 1 : 2, end of aggregation assay, n = 3 (PS n = 2)) is “increase in αSyn aggregation”. In addition, the “αSyn fibrils by TEM” value in the data set on recombinant αSyn (αSyn aggregated with peptide at 1 : 2) is “fibril morphology was unaffected”. For the same sequence, in data set [2], the “self-aggregation (ThT kinetics of peptide alone)” value is recorded as “no signs of self‐aggregation”.

Values taken from PMC12797002, “Hydrophobic residues in the α‐synuclein NAC domain drive seed‐competent fibril formation and are targeted by peptide inhibitors” (The Febs Journal, 2025).
